Where a SMILES comes first, the peptide text is derived from it. [ ]: non-standard residue; d: D form. Phe(4-Br) = N[C@@H](Cc1ccc(Br)cc1)C(=O)O; NMeL = CN[C@@H](CC(C)C)C(=O)O; Nle = CCCC[C@H](N)C(=O)O; Aib = CC(C)(N)C(=O)O
Tests used:
[1] = target: T1, wild-type rat apelin receptor (Rattus norvegicus, UniProt Q9JHG3); assay: Radioligand binding, displacement of [125I]-pyr-1-apelin-13 on CHO cell membranes
T1 construct: expressed in transfected cells
T1 sequence (Q9JHG3 1-377): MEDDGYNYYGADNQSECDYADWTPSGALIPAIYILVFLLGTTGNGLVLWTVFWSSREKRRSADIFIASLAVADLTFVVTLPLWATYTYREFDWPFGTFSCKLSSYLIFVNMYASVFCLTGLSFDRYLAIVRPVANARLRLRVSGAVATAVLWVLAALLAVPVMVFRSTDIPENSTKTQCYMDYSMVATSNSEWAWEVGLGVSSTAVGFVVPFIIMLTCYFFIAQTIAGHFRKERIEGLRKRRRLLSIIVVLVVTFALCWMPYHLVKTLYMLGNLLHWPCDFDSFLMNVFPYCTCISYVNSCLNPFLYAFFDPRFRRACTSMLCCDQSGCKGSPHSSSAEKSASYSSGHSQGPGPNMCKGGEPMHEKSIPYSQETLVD
Outline: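 Membranes (1 μg) from CHO cells stably expressing rat apelin receptor-EGFP incubated 3 h at 20 °C with 0.2 nM [125I]-pyr-1-apelin-13 and varying peptide concentrations in 50 mM HEPES, 5 mM MgCl2, 1% BSA, pH 7.5. Bound radioactivity measured by filtration and gamma counting.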

NEP [2] = target: T2, NEP (Homo sapiens, UniProt P08473); assay: Neprilysin degradation assay (LC-MS, quantitative); conditions: 37° C.
KLKB1 = KLKB1 (Homo sapiens, UniProt P03952); assay: Kinetic parameters for KLKB1 cleavage; type: biochemical; design: purchased Novoprotein; conditions: for Km / kcat: enzyme KLKB1
NEP [3] = target: T2, NEP; assay: Kinetic parameters for NEP cleavage; type: biochemical; design: purchased Sino Biological; conditions: enzyme NEP
[4] = In vitro peptide stability in human blood plasma (RP-HPLC)
neprilysin (NEP) = neprilysin (NEP) (Homo sapiens, UniProt P08473); assay: in vitro; conditions: human, pH 7.5
Chain of neprilysin (NEP) (P08473 whole entry): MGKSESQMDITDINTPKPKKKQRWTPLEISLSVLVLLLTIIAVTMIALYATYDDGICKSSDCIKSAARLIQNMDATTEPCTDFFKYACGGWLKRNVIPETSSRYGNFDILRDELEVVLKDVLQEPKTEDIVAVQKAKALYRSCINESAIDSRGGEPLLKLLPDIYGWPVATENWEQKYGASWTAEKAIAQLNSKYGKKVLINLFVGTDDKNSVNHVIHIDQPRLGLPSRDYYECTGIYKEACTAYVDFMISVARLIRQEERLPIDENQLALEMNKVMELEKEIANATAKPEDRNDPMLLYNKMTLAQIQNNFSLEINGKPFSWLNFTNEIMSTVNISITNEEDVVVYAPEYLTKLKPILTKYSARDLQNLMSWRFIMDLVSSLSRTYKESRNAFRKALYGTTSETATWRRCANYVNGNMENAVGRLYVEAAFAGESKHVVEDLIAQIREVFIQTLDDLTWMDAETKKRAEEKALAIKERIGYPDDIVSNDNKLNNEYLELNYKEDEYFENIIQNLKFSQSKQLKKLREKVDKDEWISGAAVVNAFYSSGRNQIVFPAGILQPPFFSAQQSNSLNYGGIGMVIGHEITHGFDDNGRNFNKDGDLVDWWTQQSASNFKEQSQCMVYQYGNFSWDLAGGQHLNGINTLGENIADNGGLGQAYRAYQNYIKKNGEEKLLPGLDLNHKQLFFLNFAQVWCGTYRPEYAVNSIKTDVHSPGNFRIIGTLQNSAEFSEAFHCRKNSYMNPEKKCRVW

Chain of KLKB1 (P03952 20-638): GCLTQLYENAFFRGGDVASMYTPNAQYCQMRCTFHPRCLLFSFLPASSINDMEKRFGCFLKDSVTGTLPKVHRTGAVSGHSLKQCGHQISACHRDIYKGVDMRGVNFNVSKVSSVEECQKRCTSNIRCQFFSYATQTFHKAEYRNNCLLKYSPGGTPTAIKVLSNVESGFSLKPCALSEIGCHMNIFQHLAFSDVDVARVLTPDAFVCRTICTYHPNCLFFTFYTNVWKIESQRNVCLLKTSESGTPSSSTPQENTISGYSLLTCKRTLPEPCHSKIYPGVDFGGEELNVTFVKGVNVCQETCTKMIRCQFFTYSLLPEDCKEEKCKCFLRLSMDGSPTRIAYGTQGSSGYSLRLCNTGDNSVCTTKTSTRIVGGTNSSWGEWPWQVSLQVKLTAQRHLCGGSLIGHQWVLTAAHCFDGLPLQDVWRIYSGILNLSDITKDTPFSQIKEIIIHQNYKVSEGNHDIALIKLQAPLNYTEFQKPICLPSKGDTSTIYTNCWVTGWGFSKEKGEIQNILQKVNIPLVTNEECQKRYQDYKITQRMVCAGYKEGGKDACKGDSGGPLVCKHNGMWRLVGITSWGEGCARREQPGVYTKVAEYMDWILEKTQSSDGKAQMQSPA
T2 sequence (P08473 whole entry): as the sequence (P08473 whole entry) above

Ki ([1]; displacement of [125I]-pyr-1-apelin-13 (0.2 nM), CHO membranes, rat apelin receptor-EGFP, means ± SE, read-out: Affinity Ki) | t1/2 (rhNEP, h) (NEP [2]; rhNEP 3.1 nM) | Km (KLKB1) | kcat (KLKB1) | Km (NEP [3]) | kcat (NEP [3]) | remaining at 0.5 h, 80 µM ([4]; human blood plasma) | remaining at 1 h, 80 µM ([4]; human blood plasma) | t1/2 (hplasma, h) ([4]; plasma) | receptor binding affinity (in words) ([1]; rat apelin receptor) | half-life (neprilysin (NEP)) | degradation by KLKB1 (in words) (KLKB1; KLKB1) | Compound | in vitro NEP proteolytic stability (in words) (NEP [2]; rhNEP, up to 72 h, LC-MS)
0.05 nM | 0.4 h | 97 ± 21 µM | 13.7 ± 1.3 s⁻¹ | 190 ± 40 µM | 3.4 ± 0.3 s⁻¹ | 51 ± 17% | 39 ± 7% | 0.02 h | – | – | – | CSCC[C@H](NC(=O)[C@@H]1CCCN1C(=O)CNC(=O)[C@H](CCCCN)NC(=O)[C@H](Cc1cnc[nH]1)NC(=O)[C@H](CO)NC(=O)[C@H](CC(C)C)NC(=O)[C@H](CCCNC(=N)N)NC(=O)[C@@H]1CCCN1C(=O)[C@H](CCCNC(=N)N)NC(=O)[C@H](CCC(N)=O)NC(=O)[C@H](CCCNC(=N)N)NC(=O)[C@H](CCCNC(=N)N)NC(=O)[C@H](Cc1ccccc1)NC(=O)[C@@H](N)CCCCN)C(=O)N1CCC[C@H]1C(=O)N[C@@H](Cc1ccccc1)C(=O)O [Peptide 2, reference compound] | degraded by NEP at rates comparable to those previously reported
– | – | 245 ± 75 µM | 16.5 ± 2.1 s⁻¹ | – | – | – | – | – | sub-nanomolar receptor affinities | > 1800 min | degraded quickly | CCCC[C@H](NC(=O)[C@@H]1CCCN1C(=O)CNC(=O)[C@H](CCCCN)NC(=O)[C@H](Cc1c[nH]cn1)NC(=O)[C@H](CO)NC(=O)[C@H](CC(C)C)N(C)C(=O)[C@H](CCCNC(=N)N)NC(=O)[C@@H]1CCCN1C(=O)[C@H](CCCNC(=N)N)NC(=O)[C@H](CCC(N)=O)NC(=O)[C@H](CCCNC(=N)N)NC(=O)[C@H](CCCNC(=N)N)NC(=O)[C@H](Cc1ccccc1)NC(=O)[C@@H](N)CCCCN)C(=O)NC(C)(C)C(=O)N[C@@H](Cc1ccc(Br)cc1)C(=O)O [Peptide 11] (H-KFRRQRPR[NMeL]SHKGP[Nle][Aib][Phe(4-Br)]-OH; C-terminus assumed) | –

Source: patent publication US10640545B2 (THE GOVERNORS OF THE UNIVERSITY OF ALBERTA, priority 2017, dated 2020)
